≈ marks a conversion by molar mass, not a printed value.
Key:
Rattus norvegicus [1] = assay: Reversal of mechanically-induced allodynia in Wistar rat at 30 umol/kg, iv after 2 hrs by Brennan test; assay type: functional
Rattus norvegicus [2] = assay: Effect on mechanically-induced allodynia in iv dosed Wistar rat after 2 hrs by Brennan test; assay type: functional
[3] = Solubility of the compound; assay type: physicochemical

SMILES: COc1ccc(C)c(OC(CCN2CCC(n3c(=O)n(Cc4ncn[nH]4)c4ccccc43)CC2)C(C)C)c1 (centres undefined)
- Activity (Rattus norvegicus [1]): 100%
- ED50 (Rattus norvegicus [2]): 12.1 µmol/kg

SMILES: COc1ccc(C)c(OC(CCN2CCC(n3c(=O)n(Cc4c[nH]cn4)c4ccccc43)CC2)C(C)C)c1 (centres undefined)
- solubility [3]: 200 µg/mL (≈ 386 µM)

SMILES: COc1ccc(C)c(OC(CCN2CCC(n3c(=O)n(Cc4ncn[nH]4)c4ccccc43)CC2)C(C)C)c1.Cl (single isomer, unassigned; (+))
- solubility [3]: 4 µg/mL

From ChEMBL document CHEMBL1143970, “Structure-activity relationships and CoMFA of N-3 substituted phenoxypropyl piperidine benzimidazol-2-one analogues as NOP receptor agonists with analgesic properties” (Bioorg Med Chem, 2008)
